Structures can show the parent of a compound that is named as a salt.
System: Conditioned Avoidance Responding (Rat)
Assay: Block of Conditioned Avoidance Responding (Rat) test (CAR)
Type: in vivo, Male Fischer 344 rats
Conditions: for % escape loss: group mean % failures to escape; for % Inhibition CAR: mean % change in CAR vs vehicle day, negative = blockade
Text: The antipsychotic activity of the compounds of the invention may be determined by the Block of Conditioned Avoidance Responding (Rat) test (CAR), the references being Cook, L. and E. Weidley in Ann. […] P. Reynolds Trends Pharmacol. Sci. 1992, 13, 116). […] Block of Conditioned Avoidance Responding (Rat) Apparatus: Rat operant chambers, housed within sound attenuated booths, both from […] Instruments Ltd., were used in this test. The test chamber (8" H×903/8" W×9" D) is constructed of aluminum and plexiglass with floor grid bars of stainless-steel (1/8" O.D.) spaced 9/16" apart. A stainless-steel operation level 11/2" wide projects 3/4" into the chamber and is positioned 2-2/8" above the grid floor. The shock stimulus is delivered via the grid floor by a Coulbourn Instruments solid state module. The parameters of the test and the collection of data are controlled automatically. Training: Male, Fischer 344 rats obtained from Charles River (Kingston, N.Y.) weighing more than 200 g, are individually housed with chow and water provided ad libitum. The rats are trained for two weeks to approach criterion levels in the avoidance test (90% avoidance rate). One-hour training sessions are run at about the same time each day for four or five days a week. The training session consists of 120 tdals, with the conditioned stimuli presented every 30 sec. A trial begins with presentation of the conditioned stimuli (a light and a tone). If the rat responds by depressing the operant lever during the 15-second presentation of the conditioned stimuli, the trial is terminated .and the animal is credited with a CAR. Failure to respond during the conditioned stimuli causes the presentation of the unconditioned stimulus (UCS), a 0.7 mA shock which is accompanied by a light and tone for […]. If the rat depressed the lever within the ten-second period, the shock and trial are terminated and an escape response recorded. If the rat fails to depress the lever during the UCS (shock), the trial is terminated after ten seconds of shock and the absence of a response is scored as a failure to escape. […] presses have no effect. If a rat performs at the 90% CAR level for two weeks, it is then run twice a week on the test schedule (see below) until baseline performance stabilized. Before any drug is administered, two weeks of CAR at a rate of 90% or better is required. Determination of ED50 Values Trained rats are run in a one-hour session on two consecutive days at the same time and in the same test chamber each day. The sessions consist of 60 trials, one every minute. The conditioned stimuli are presented for 15 sec (maximum) and the unconditioned stimuli five sec (maximum). On Day 1, a vehicle solution is administered to the rats at a time preceding the trial run corresponding to the pretreatment time for the test compound. The route of administration and the volume of vehicle are also matched to that of the test compound. […] The percent change in CAR on the drug treatment day compared to vehicle pretreatment day is the key measure. The percent change (% change) in CAR is determined using the following formula: % change CAR=((Day 2% CAR/Day 1% CAR)×100)-100 A negative number indicates a blockade of CAR, whereas a positive number would indicate increased CAR. The test results are reported as the mean % change for the group of rats. A reading of -20% is generally taken to represent a minimum value for a compound to be designated as active at a given dose in the CAR test. Failure to escape was calculated for each animal as follows: % Failures=# of Failures to Escape/# of trials The % failures, viz., loss of escape, is also reported as a group mean. Failures to escape are monitored closely and a session is terminated if ten failures occurred. ED50 values and 95% confidence limits are calculated using linear regression analysis.

Row | Structure (SMILES) | % escape loss (5 mpk, PI) [%] | % Inhibition CAR (5 mpk, PI) [%] | % escape loss (15 mpk) [%] | % Inhibition CAR (15 mpk) [%]
1 | O=C1CCCCN1Cc1ccc(CN2CCN(c3cccc4ccoc34)CC2)s1 [CP #6, 1-[[5-[[1-(7-Benzofuranyl)-4-piperazinyl]methyl]-2-thienyl]methyl]-2-piperidinone1.5 Fumarate Hydrate] | 5 | -63 | – | –
2 | CC(C)Oc1ccccc1N1CCN(Cc2cc(C(=O)N3CCCCC3)cs2)CC1.Cl [CP #2, 1-[[5-[[1-[2-(1-Methylethoxy)phenyl]-4-piperazinyl]methyl]-3-thienyl]carbonyl]piperidine Monohydrochloride] | 34 | -72 | – | –
3 | CC(C)Oc1ccccc1N1CCN(Cc2cc(C(=O)N3CCCCCC3)cs2)CC1 [CP #4, Hexahydro-1-[5-[[-1-[2-(1-Methylethoxy)phenyl-4-piperazinyl]methyl]-3-thienyl]carbonyl]-1-H-azepine Hydrochloride Hydrate] | 3 | -41 | – | –
4 | CC(C)Oc1ccccc1N1CCN(Cc2ccc(CN3CCCCC3=O)s2)CC1 [CP #5, 1-[[5-[[1-[2-(1-Methylethoxy)phenyl-4-piperazinyl]methyl]-2-thienyl]methyl]-2-piperidinone Hydrochloride] | 3 | -58 | – | –
5 | CC(C)Oc1ccccc1N1CCN(Cc2ccc(C(=O)N3CCCCC3)s2)CC1.O=C(O)/C=C/C(=O)O [CP #1, 1-[[5-[[1-[2-(1-Methylethoxy)phenyl]-4-piperazinyl]methyl]-2-thienyl]carbonyl]piperidine Fumarate] | 18 | -56 | – | –
6 | CC(C)Oc1ccccc1N1CCN(Cc2ccc(C(=O)N3CCCCCC3)s2)CC1 [CP #3, Hexahydro-1-[[5-[[1-[2-(1-methylethoxy)phenyl]-4-piperazinyl]methyl]2-thienyl]carbonyl]-1H-azepine Monohydrochloride Hemi Hydrate] | 3 | -8 | – | –
7 | CC(C)Oc1ccccc1N1CCN(Cc2cccc(CN3CCCCC3=O)n2)CC1 [CP #7, 1-[[6-[[1-[2-(Methylethoxy)phenyl]-4-piperazinyl]methyl]pyridinyl]methyl]-2-piperidinone Hydrochloride] | – | – | 0 | -85

— US5332732A, “Thiophene and pyridine antipsychotic agents” (McNeilab, Inc., priority 1992, dated 1994)
